Assay results as given in US20210276987A1, “PHARMACEUTICAL AGENTS FOR USE IN SMOKING AND TOBACCO CESSATION” (Washington State University, priority 2018, published 2021).
Structures can show the parent of a compound that is named as a salt. Where two headings read alike, the source gives them in different places. One block for each compound: values may come before it.

Experiments:
UGT2B10 = target: T1, UGT2B10 (Homo sapiens, UniProt P36537); assay: biochemical
T1 sequence (P36537 24-528): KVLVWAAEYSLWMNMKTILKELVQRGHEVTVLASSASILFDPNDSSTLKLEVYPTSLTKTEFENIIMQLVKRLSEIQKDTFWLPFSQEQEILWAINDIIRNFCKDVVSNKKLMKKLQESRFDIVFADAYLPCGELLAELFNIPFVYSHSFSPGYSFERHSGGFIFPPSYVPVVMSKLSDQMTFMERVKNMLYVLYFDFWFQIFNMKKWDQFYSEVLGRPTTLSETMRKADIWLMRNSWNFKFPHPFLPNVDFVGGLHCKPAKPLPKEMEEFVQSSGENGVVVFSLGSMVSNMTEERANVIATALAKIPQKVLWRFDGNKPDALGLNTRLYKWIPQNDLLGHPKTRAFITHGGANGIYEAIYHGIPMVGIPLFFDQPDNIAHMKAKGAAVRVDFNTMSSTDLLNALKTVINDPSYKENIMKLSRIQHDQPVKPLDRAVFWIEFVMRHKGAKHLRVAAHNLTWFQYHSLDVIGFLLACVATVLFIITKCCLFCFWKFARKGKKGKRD
Procedure: Initial screening assays were performed as described above for the CYP assays using 1 μM or 10 μM of each of the NAs. The inhibitory effects of each agent against UGT2B10 was performed using the known UGT2B10-specific probe substrate, nicotine, in pooled human liver microsomes. […] Pre-incubations containing 500 μM nicotine and 1 or 10 μM NA were subsequently performed at 37° C. in 50 mM Tris-HCl buffer (pH 7.5, in a final volume of 50 μL) and 10 mM MgCl2 for 5 minutes.

CYP2A6 [1] = target: T2, CYP2A6 (Homo sapiens, UniProt P11509); assay: biochemical; conditions: IC50 against CYP2A6 (μM), pooled human liver microsomes
T2 sequence (P11509 1-494): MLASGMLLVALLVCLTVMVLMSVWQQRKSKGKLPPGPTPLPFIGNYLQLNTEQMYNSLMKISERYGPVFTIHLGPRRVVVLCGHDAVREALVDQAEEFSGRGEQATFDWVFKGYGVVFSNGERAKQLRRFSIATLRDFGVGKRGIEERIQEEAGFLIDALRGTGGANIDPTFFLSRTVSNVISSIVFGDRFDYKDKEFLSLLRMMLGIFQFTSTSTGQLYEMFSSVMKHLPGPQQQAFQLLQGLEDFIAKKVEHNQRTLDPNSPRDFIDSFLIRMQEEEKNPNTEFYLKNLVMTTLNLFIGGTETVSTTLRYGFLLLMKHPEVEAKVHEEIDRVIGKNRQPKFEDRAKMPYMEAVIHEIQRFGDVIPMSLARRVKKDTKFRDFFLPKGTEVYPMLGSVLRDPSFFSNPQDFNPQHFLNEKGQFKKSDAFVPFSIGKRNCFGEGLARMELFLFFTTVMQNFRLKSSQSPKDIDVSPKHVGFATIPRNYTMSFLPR

CYP2B6 = target: T3, CYP2B6 (Homo sapiens, UniProt P20813); conditions: Table 8, thiophene and furan analogues
T3 sequence (P20813 1-491): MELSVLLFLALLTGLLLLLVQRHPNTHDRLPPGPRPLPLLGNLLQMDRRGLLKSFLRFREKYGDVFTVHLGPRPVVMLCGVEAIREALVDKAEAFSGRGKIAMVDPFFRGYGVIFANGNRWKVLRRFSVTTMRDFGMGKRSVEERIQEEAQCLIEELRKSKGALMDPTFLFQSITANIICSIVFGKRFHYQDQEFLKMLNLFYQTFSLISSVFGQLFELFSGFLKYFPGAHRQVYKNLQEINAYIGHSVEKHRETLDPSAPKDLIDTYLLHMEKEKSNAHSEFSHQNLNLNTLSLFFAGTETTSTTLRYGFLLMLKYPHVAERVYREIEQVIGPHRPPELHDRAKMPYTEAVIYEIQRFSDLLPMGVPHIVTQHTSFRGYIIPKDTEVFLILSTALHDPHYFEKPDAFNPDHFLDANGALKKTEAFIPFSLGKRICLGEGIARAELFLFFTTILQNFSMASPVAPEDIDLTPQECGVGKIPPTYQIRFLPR

CYP2E1 = CYP2E1 (Homo sapiens, UniProt P05181); conditions: Table 8, thiophene and furan analogues
CYP2E1, sequence (P05181 whole entry): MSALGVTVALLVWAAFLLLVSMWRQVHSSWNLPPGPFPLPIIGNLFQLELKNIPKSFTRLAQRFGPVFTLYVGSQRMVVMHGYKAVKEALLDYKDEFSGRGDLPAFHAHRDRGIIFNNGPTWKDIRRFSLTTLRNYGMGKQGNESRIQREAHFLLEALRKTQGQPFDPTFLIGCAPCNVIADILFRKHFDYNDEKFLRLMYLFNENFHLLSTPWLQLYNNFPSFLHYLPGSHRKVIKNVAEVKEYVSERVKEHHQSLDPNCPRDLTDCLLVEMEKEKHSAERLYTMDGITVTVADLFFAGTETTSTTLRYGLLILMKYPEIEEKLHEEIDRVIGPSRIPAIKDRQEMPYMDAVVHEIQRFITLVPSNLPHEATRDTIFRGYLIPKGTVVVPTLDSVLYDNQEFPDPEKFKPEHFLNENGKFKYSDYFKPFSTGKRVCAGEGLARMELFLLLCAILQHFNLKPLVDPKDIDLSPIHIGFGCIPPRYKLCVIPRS

CYP2C19 = CYP2C19 (Homo sapiens, UniProt P33261); assay: CYP2C19 inhibition assay, human liver microsomes, omeprazole probe (cocktail); conditions: Table 8, thiophene and furan analogues
CYP2C19, sequence (P33261 whole entry): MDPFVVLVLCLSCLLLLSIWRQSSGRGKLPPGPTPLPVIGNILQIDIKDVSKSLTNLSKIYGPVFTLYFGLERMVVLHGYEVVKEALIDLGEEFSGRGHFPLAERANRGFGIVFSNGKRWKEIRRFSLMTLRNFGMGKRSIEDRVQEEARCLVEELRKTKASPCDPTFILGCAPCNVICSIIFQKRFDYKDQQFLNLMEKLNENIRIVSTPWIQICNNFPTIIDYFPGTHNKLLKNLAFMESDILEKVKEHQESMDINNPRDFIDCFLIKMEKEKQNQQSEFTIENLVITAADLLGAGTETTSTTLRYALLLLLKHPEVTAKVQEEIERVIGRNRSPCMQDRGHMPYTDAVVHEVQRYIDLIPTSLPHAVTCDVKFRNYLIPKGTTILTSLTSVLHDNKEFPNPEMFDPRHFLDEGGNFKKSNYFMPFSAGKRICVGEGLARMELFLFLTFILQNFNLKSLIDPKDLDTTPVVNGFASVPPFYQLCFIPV

CYP2C9 = CYP2C9 (Homo sapiens, UniProt P11712); assay: CYP2C9 inhibition assay, human liver microsomes, diclofenac probe (cocktail); conditions: Table 8, thiophene and furan analogues
CYP2C9, sequence (P11712 whole entry): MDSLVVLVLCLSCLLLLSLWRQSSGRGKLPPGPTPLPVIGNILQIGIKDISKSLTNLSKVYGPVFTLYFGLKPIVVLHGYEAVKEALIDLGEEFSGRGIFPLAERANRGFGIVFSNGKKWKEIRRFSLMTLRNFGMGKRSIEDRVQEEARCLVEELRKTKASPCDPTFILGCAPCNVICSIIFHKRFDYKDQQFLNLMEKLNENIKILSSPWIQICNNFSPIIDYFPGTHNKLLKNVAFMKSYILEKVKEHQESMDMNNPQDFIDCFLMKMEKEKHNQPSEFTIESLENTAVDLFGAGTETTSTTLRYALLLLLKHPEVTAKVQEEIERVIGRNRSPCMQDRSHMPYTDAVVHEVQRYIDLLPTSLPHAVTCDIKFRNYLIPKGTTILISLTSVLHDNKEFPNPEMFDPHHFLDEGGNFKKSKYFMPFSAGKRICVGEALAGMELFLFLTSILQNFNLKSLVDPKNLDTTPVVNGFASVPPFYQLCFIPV

in vitro = conditions: for half-life at 10 μM: human, microsomes; for T1/2 (min) in human liver microsomes: 10 μM, pH 7.4
Procedure: In vitro stability studies. […] Half-lives were calculated using the one-phase exponential decay equation (GraphPad).

CYP2D6 = CYP2D6 (Homo sapiens, UniProt P10635); assay: CYP2D6 inhibition assay, human liver microsomes, dextromethorphan probe (cocktail); conditions: Table 8, thiophene and furan analogues
CYP2D6, sequence (P10635 whole entry): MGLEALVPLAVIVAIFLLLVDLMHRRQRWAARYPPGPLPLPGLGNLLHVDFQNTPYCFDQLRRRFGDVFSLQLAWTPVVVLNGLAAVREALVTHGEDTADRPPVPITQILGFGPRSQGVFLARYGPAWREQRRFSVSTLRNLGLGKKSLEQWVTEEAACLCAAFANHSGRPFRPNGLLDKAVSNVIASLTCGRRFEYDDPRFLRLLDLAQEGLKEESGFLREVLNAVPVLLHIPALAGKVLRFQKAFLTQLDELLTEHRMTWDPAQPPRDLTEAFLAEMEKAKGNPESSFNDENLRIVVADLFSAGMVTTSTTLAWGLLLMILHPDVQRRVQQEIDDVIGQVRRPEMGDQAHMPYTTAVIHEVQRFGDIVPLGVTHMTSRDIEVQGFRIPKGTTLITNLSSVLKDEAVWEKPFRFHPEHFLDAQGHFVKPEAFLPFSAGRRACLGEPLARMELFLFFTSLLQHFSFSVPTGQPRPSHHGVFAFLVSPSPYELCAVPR

CYP2C8 = target: T4, CYP2C8 (Homo sapiens, UniProt P10632); conditions: Table 8, thiophene and furan analogues
T4 sequence (P10632 1-490): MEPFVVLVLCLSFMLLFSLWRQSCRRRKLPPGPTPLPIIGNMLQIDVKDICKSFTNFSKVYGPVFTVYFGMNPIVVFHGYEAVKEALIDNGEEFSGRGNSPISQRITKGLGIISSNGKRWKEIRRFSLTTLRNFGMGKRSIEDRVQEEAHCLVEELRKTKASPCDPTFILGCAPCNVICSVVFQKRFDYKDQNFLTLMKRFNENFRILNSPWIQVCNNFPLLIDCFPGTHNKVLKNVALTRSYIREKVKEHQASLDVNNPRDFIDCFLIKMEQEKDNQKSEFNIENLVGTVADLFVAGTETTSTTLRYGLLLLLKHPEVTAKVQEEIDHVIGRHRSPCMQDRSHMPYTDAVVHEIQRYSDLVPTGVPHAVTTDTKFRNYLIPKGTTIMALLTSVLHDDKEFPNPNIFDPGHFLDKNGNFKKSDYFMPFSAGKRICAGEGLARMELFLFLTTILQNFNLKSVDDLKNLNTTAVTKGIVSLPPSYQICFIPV

CYP1A2 = target: T5, CYP1A2 (Homo sapiens, UniProt P05177); assay: CYP1A2 inhibition assay, human liver microsomes, phenacetin probe (cocktail); conditions: Table 8, thiophene and furan analogues
T5 sequence (P05177 1-516): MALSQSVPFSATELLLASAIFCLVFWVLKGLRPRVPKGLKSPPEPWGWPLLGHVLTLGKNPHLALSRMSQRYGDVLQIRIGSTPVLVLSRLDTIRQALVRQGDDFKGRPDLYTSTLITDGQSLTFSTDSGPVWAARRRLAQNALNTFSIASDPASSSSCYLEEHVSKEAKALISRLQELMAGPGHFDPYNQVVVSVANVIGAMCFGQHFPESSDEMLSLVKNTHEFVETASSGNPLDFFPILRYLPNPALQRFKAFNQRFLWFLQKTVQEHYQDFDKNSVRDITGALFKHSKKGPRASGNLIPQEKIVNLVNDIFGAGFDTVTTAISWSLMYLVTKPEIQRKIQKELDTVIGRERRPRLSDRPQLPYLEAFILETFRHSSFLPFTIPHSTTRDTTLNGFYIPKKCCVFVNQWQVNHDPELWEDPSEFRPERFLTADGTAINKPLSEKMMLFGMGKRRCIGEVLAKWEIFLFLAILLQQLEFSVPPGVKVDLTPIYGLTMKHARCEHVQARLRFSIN

CYP2A6 [2] = target: T2, CYP2A6; conditions: both, human, microsomes, pH 7.4
[3] = IC50 against UGT2B10 (μM), Table 9, pooled human liver microsomes, nicotine 500 μM
[4] = Table 5, alkyne linker agents, coumarin […]
[5] = pH 7.4, half-life (T1/2) in human liver microsomes

IC50 (UGT2B10; [3]): 770 µM
IC50 (CYP2A6 [1]; [4]): > 10 µM
Structure (SMILES): NCC#Cc1cncc2ccccc12 [Compound A, 3-(isoquinolin-4-yl)prop-2-yn-1-amine Dihydrochloride]

IC50 ratio CYP2B6/CYP2A6 (CYP2B6): 7.4
IC50 ratio CYP2E1/CYP2A6 (CYP2E1): 47
IC50 (CYP2A6 [1]; Table 7, thiophene and furan nicotine analogues, coumarin): 0.11 µM
IC50 ratio CYP2C19/CYP2A6 (CYP2C19): 6.8
IC50 ratio CYP2C9/CYP2A6 (CYP2C9): 182
half-life at 10 μM (in vitro; pH 7.4, T1/2 (min) in human liver microsomes): 0.183 h
half-life at 10 μM (in vitro; [5]): < 0.417 h
IC50 ratio CYP2D6/CYP2A6 (CYP2D6): 71
IC50 ratio CYP2C8/CYP2A6 (CYP2C8): 227
IC50 ratio CYP1A2/CYP2A6 (CYP1A2): 17
Structure (SMILES): NCc1ccc(-c2cnccc2Cl)s1 [Compound AB, (5-(4-chloropyridin-3-yl)thiophene-2-yl)methanamine Dihydrochloride]

Structure (SMILES): NCc1ccc(-c2cnccc2-c2cccnc2)o1 [Compound AG, (5-([3,4′-Bipyridin]-3′-yl)furan-2-yl)methanamine Trihydrochloride]
IC50 (CYP2A6 [2]): 0.38 µM
T1/2 (min) in human liver microsomes (in vitro): >120 min
half-life at 10 μM (in vitro; [5]): > 1.5 h

Structure (SMILES): NCc1ccc(-c2cnccc2-c2ccncc2)s1 [Compound AJ, (5-([4,4′-Bipyridin]-3′-yl)thiophene-2-yl)methanamine Trihydrochloride]
IC50 (CYP2A6 [2]): 0.33 µM
T1/2 (min) in human liver microsomes (in vitro): 32 min

Structure (SMILES): NCc1ccc(-c2cnccc2-c2cncnc2)o1 [Compound AK, (5-(4-(Pyrimidin-5-yl)pyridin-3-yl)furan-2-yl)methanamine Trihydrochloride]
IC50 (CYP2A6 [2]): 1.3 µM
T1/2 (min) in human liver microsomes (in vitro): >120 min
half-life at 10 μM (in vitro; [5]): > 1.5 h

Structure (SMILES): NCc1ccc(-c2cnccc2-c2cncnc2)s1 [Compound AL, (5-(4-(Pyrimidin-5-yl)pyridin-3-yl)thiophene-2-yl)methanamine Trihydrochloride]
IC50 (CYP2A6 [2]): 1.2 µM
T1/2 (min) in human liver microsomes (in vitro): >120 min
half-life at 10 μM (in vitro; [5]): > 1.5 h

IC50 (UGT2B10; [3]): > 1000 µM
IC50 (UGT2B10; IC50 against UGT2B10, little to no inhibition): > 1000 µM
IC50 (CYP2A6 [1]; [4]): > 10 µM
Structure (SMILES): NCC#Cc1cnc2ccccc2c1 [Compound B, 3-(quinolin-3-yl)prop-2-yn-1-amine]
